Counter-ions that a name gives are not always drawn.
Tested on: not given
Experiment: not given
Settings: not given

melting point [°C]	Compound
176 to 178	Fc1ccc(Nc2nc(NCc3ccccc3)nc(Nc3ccc(F)cc3)n2)cc1 (as salt: HCl) (hydrate or solvate) [compound 28]
175 to 176	COCCNc1nc(Nc2ccc(F)cc2)nc(Nc2ccc(F)cc2)n1 (as salt: HCl) [compound 35]
191 to 192	OCCCNc1nc(Nc2ccccc2)nc(Nc2ccccc2)n1 (as salt: HCl) [compound 21]

The next lines start with the compound.

Compound	melting point [°C]
CN(C)Nc1nc(Nc2ccccc2)nc(Nc2ccc(F)cc2)n1 (as salt: HCl) [Example 791]	154 to 156
Fc1ccc(Nc2nc(NCc3ccco3)nc(Nc3ccccc3)n2)cc1 (hydrate or solvate) [Example 764]	144 to 148
Fc1ccc(Nc2nc(NCc3ccnc(F)c3)nc(Nc3ccc(Cl)cc3)n2)cc1 (as salt: HCl) [Example 797]	214 to 215
[O-][n+]1ccc(CCNc2nc(Nc3ccccc3)nc(Nc3ccccc3)n2)cc1 (as salt: salt) (hydrate or solvate) [Example 740]	161 to 162
COCCCNc1nc(Nc2ccccc2)nc(Nc2ccccc2)n1 (as salt: HCl) [compound 18]	154 to 155

Biological target: T1, BEC 1 potassium channel (Homo sapiens, UniProt Q9ULD8)
T1 construct: expressed in transfected cells
T1 sequence (Q9ULD8 1-1083): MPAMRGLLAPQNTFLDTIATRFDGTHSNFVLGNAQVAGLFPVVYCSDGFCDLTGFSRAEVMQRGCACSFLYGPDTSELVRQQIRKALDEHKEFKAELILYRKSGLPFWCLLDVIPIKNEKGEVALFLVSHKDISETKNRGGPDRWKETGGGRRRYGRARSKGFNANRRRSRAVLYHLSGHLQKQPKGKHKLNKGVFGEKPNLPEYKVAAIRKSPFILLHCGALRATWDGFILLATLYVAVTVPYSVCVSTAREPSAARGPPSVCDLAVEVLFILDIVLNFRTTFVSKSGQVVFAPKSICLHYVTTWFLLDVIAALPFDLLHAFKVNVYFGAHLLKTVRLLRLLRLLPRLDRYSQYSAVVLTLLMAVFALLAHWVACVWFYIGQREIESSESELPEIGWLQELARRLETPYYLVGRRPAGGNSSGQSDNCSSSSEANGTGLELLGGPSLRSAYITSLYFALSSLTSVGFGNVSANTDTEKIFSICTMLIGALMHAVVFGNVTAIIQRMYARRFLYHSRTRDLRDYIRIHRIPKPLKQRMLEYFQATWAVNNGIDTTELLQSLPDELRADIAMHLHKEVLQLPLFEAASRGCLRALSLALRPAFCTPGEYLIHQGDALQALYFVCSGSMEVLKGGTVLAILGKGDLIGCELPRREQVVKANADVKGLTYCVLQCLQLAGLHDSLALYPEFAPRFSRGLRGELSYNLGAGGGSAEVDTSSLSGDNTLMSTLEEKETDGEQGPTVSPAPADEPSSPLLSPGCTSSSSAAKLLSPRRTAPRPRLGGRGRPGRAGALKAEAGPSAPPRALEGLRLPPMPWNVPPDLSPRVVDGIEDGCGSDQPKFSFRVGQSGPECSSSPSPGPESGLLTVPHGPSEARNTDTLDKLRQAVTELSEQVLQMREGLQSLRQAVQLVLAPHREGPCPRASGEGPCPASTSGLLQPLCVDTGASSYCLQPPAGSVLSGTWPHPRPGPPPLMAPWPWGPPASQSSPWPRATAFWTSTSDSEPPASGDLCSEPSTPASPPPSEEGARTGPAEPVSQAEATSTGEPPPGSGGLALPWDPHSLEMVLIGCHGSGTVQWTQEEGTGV
Experiment: BEC 1 inhibitory activity using released amount of 86Rb ions from BEC 1-expressing cells
Type: cell-based
Settings: 86Rb ion release, BEC 1-stably expressing CHO (dhfr-deficient) cell, 100 mM KCl stimulation; read-out: BEC1 IC50
Description: In general, the potassium channel can pass Rb^+ ion similar to K^+ ion, so that the channel activity can be measured using release of a radioisotope ^86Rb^+ as a marker. By incubating cells expressing the novel potassium channel protein together with ^86RbCl (e.g., 18 hr, 37° C.), ^86Rb^+ can be incorporated into the cells. The cells are washed with a low K^+ concentration physiological saline (e.g., 4.5 mM K^+) and then suspended in the same solution. When a high K^+ concentration solution (e.g., 100 mM in final concentration) is added to the cell suspension, membrane potential of the cell is depolarized and the potassium channel therefore is activated. As a result, the intracellular ^86Rb^+ is released into the extracellular part, thus radioactivity of the extracellular solution can be used as a marker of the channel activity. It is possible to screen a compound and a peptide capable of modifying activity of the BEC 1 potassium channel protein, by comparing the radioactivity released into the extracellular part when the high K^+ concentration solution is added in the presence and absence of each drug to be tested.
Method for Measuring BEC 1 Inhibitory Activity of Compounds Using Released Amount of ^86Rb ions as the Index
The channel activity of BEC 1 was measured in accordance with the method described in WO 99/37677, using amount of a radioisotope ^86Rb ion released from a BEC 1-expressing cell as the index. That is, when an ^86Rb ion-incorporated BEC 1-expressing cell was stimulated with 100 mM KCl, the radioactivity released from the cell was used as the channel activity of BEC 1. The ^86Rb ions were incorporated into a BEC 1-stably expressing cell by culturing the cell (3 hours, 37° C.) in the presence of ^86RbCl (0.5 μCi/ml), and the un-incorporated ^86Rb ions were removed by washing three times with HEPES-buffered saline (pH 7.4, 2.5 mM KCl). The cells were incubated with HEPES-buffered saline containing a compound to be tested at room temperature for 15 minutes and then further incubated with 100 mM KCl-containing HEPES-buffered saline (pH 7.4) containing the compound to be tested at room temperature for 5 minutes. The extracellular medium was recovered, and then the remaining cells were lysed with 0.1 N NaOH and recovered.
The Cerenkov radioactivity of the extracellular medium and cell lysate was respectively measured, and their total was used as the total radioactivity. The released amount of ^86Rb ions was expressed by the percentage of extracellular medium radioactivity based on the total radioactivity. The value obtained in the presence of the compound was used as a test value, and the value obtained in the absence of the compound as a control value and the value obtained when not stimulated with 100 mM KCl as a blank value. Inhibitory action of each compound was expressed by % inhibition, namely (control value−test value)×100/(control value−blank value), or by an IC50 value calculated from the % inhibition. As the test results of typical compounds are shown in the following Tables 2 and 3, it was confirmed that said compounds have the BEC 1 potassium channel inhibitory action.
In this connection, as the BEC 1-expressing cell, a BEC 1-stably expressing cell prepared in accordance with the method described in WO 99/37677 using a dihydrofolate reductase (dhfr)-deficient strain of a Chinese hamster ovary cell was used.

IC50 [nM]	Compound
480	O=C1OCCC1CNc1nc(Nc2ccccc2)nc(Nc2ccccc2)n1 (stereo not drawn) [compound 24]
1300	CSCCCNc1nc(Nc2ccccc2)nc(Nc2ccccc2)n1 [compound 19]
350	Fc1ccc(CNc2nc(Nc3ccc(F)cc3)nc(Nc3ccc(F)cc3)n2)cc1 [compound 29]
390	Fc1ccc(Nc2nc(NCc3ccccc3)nc(Nc3ccc(F)cc3)n2)cc1 [compound 28]
630	COc1cccc(Nc2nc(Nc3cccc(OC)c3)nc(NC(C)C)n2)c1 [compound 40]
400	CC(C)Nc1nc(Nc2ccc3c(c2)OCO3)nc(Nc2ccc3c(c2)OCO3)n1 [compound 41]
240	OCCOCCNc1nc(Nc2ccccc2)nc(Nc2ccccc2)n1 [compound 23]
240	COCCNc1nc(Nc2ccc(F)cc2)nc(Nc2ccc(F)cc2)n1 [compound 35]
480	Fc1ccc(Nc2nc(NCC3CCCO3)nc(Nc3ccc(F)cc3)n2)cc1 (stereo not drawn) [compound 36]
590	OCCCNc1nc(Nc2ccccc2)nc(Nc2ccccc2)n1 [compound 21]
260	OCCCCCNc1nc(Nc2ccc(F)cc2)nc(Nc2ccc(F)cc2)n1 [compound 37]
73	Fc1ccc(Nc2nc(NCc3ccco3)nc(Nc3ccc(F)cc3)n2)cc1 [compound 30]
180	OCCOCCNc1nc(Nc2ccc(F)cc2)nc(Nc2ccc(F)cc2)n1 [compound 38]
490	Fc1ccc(Nc2nc(NCc3cccs3)nc(Nc3ccc(F)cc3)n2)cc1 [compound 31]

The next lines start with the compound.

Compound	IC50 [nM]
C[C@H](CO)Nc1nc(Nc2ccccc2)nc(Nc2ccc(F)cc2)n1 [Example 779]	700
Fc1ccc(Nc2nc(NCc3ccnc(F)c3)nc(Nc3ccc(Cl)cc3)n2)cc1 [Example 797]	650
N-isopropyl-N′,N″-bis(4-methoxyphenyl)-1,3,5-triazine-1,3,5-triamine hydrochloride [compound 39]	660
Nc1cccc(CNc2nc(Nc3ccccc3)nc(Nc3ccc(F)cc3)n2)n1 [Example 819]	1400
CCONc1nc(Nc2ccccc2)nc(Nc2ccc(F)cc2)n1 [Example 790]	4700
OCCCCCNc1nc(Nc2ccccc2)nc(Nc2ccc(F)cc2)n1 [Example 776]	140
COCCNc1nc(Nc2ccccc2)nc(Nc2ccc(OC)cc2)n1 [Example 808]	420
COCCNc1nc(Nc2ccccc2)nc(Nc2ccc(F)cc2)n1 [Example 771]	250
OCCNc1nc(Nc2ccccc2)nc(Nc2ccc(F)cc2)n1 [Example 773]	1500
Cc1ccc(Nc2nc(Nc3ccccc3)nc(NC(C)C)n2)cc1 [Ex 47]	720
CN(C)Nc1nc(Nc2ccccc2)nc(Nc2ccc(F)cc2)n1 [Example 791]	2200
[O-][n+]1ccc(CCNc2nc(Nc3ccccc3)nc(Nc3ccccc3)n2)cc1 [Example 740]	4900
CC(C)Nc1nc(Nc2ccccc2)nc(Nc2ccc(C(F)(F)F)cc2)n1 [Ex 49]	140
CCN(CC)CCCC(C)Nc1nc(Nc2ccccc2)nc(Nc2ccc(F)cc2)n1 (stereo not drawn) [Example 794]	3100
C#CCNc1nc(Nc2ccccc2)nc(Nc2ccccc2)n1 [compound 16]	360
OCCOCCNc1nc(Nc2ccccc2)nc(Nc2ccc(F)cc2)n1 [Example 777]	210
Nc1cc(CNc2nc(Nc3ccccc3)nc(Nc3ccc(F)cc3)n2)ccn1 [Example 747]	3600
COCCCNc1nc(Nc2ccccc2)nc(Nc2ccccc2)n1 [compound 18]	1100
OCCCCNc1nc(Nc2ccccc2)nc(Nc2ccc(F)cc2)n1 [Example 775]	110
c1ccc(Nc2nc(NCc3ccncc3)nc(Nc3ccccc3)n2)cc1 [compound 1, N,N′-diphenyl-N″-(4-pyridylmethyl)-1,3,5-triazine-2,4,6-triamine]	84
OCCCNc1nc(Nc2ccccc2)nc(Nc2ccc(F)cc2)n1 [Example 774]	550
CONc1nc(Nc2ccccc2)nc(Nc2ccc(F)cc2)n1 [Example 789]	9500
Fc1ccc(Nc2nc(NCc3ccco3)nc(Nc3ccccc3)n2)cc1 [Example 764]	47
c1ccc(Nc2nc(NCC3CCOCC3)nc(Nc3ccccc3)n2)cc1 [Example 741]	520
COc1ccc(Nc2nc(Nc3ccccc3)nc(NC(C)C)n2)cc1 [Ex 48]	290
Fc1ccc(Nc2nc(NCc3ccnc(F)c3)nc(Nc3ccc(F)cc3)n2)cc1 [Example 743]	100
CC(C)Nc1nc(Nc2ccccc2)nc(Nc2ccc(Cl)cc2)n1 [Ex 46]	490
CC(CCCC(C)(C)O)Nc1nc(Nc2ccccc2)nc(Nc2ccccc2)n1 (stereo not drawn) [Example 742]	1400

Same assay, conditions: concentration of test compound is 3 μM; 86Rb ion release

Inhibition ratio [%]	Compound
44	c1ccc(Nc2nc(Nc3ccccc3)nc(NC3CC3)n2)cc1 [compound 62]
31	CNc1nc(Nc2ccccc2)nc(Nc2ccccc2)n1 [compound 52]
59	CCNc1nc(Nc2ccccc2)nc(Nc2ccccc2)n1 [compound 53]
64	CCCNc1nc(Nc2ccccc2)nc(Nc2ccccc2)n1 [compound 54]
